Data: article PMC2728841, “The Crystal Structure of the Escherichia coli Autoinducer-2 Processing Protein LsrF” (PLoS ONE, 2009)

Target: T1, LsrF (Escherichia coli, UniProt P76143)
T1 construct: His6-MBP fusion (pDEST-HisMBP) made in E. coli BL21, tag cut with TEV protease; decamer; model lacks residues 1-9, 177-180, 290-291
Test: X-ray crystallography, crystal soak, […] Å
Type: binding
Settings: 100 mM ligand soak, 5 min, 100 mM Tris pH 8.0, 100 mM MgCl2, 27.5% PEG 400; aldolase active site; non-covalent model

T1 sequence (P76143 whole entry, the tested form may be a part): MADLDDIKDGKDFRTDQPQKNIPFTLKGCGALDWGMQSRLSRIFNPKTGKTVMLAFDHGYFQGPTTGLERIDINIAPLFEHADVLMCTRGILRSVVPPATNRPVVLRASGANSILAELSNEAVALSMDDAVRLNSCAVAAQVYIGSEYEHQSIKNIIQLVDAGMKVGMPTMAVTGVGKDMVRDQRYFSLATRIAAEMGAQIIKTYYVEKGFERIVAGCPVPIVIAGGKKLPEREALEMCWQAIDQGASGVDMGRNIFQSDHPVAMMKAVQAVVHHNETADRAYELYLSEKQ

O=P(O)(O)OC[C@H]1OC(O)[C@H](O)[C@@H]1O (stereo partly shown) [ribose-5-phosphate]
X-ray crystallography, crystal soak, 2.5 Å: The final model included one ribose-5-phosphate per chain
